What was measured:
Type in all cases: in vivo, mouse
[1] = tested on: Lmna^H222P/H222P mice; experiment: NAD+ content quantification in heart and liver of treated Lmna H222P/H222P mice; conditions: NR complemented diet 400 mg/kg/day, from 17 weeks of age for 9 weeks, vs chow-diet
Method: (§1) Mice were bred in an accredited animal facility (accreditation number: C-75-13-08). All experiments on mice were approved by the Comité d'éthique en expérimentation animate Charles Darwin No 5. Mice Lmna^H222P/H222P were backcrossed 8 times to 129S2/SvPasOrlRj strain mice to obtain pure genetic background. Male mice used for the studies were maintained under a 12 h light/12 h dark cycle at constant temperature (23° C.) with free access to food and water. Nicotinamide riboside (NR) complementation: Animals at 17 weeks of age were fed for 9 weeks with either a chow diet (A04: Scientific Animal Food & Engineering) or a chow diet complemented with 0.25% of NR (kindly provided by ChromaDex, Inc. California) corresponding to a dose of 400 mg/kg/day for a mouse weighing 25 g eating 4 g of food per day. […]
Fresh mouse tissues were homogenized and processed according to previous report (Sander B J, Oelshlegel F J & Brewer G J (1976) Quantitative analysis of pyridine nucleotides in red blood cells: a single-step extraction procedure. Anal. Biochem. 71: 29-36). The concentration of NAD+ in heart tissue was determined using a spectrophotometric assay at 550 nm based on an alcohol dehydrogenase cycling reaction, in which a Methyl Thiazolyl Tetrazolium (MTT) is reduced to Formazan. […]

[2] = tested on: Lmna^H222P/H222P mice; experiment: Echocardiography and heart size in treated Lmna H222P/H222P mice
Method: Mice were bred in an accredited animal facility (accreditation number: C-75-13-08). All experiments on mice were approved by the Comité d'éthique en expérimentation animate Charles Darwin No 5. Mice Lmna^H222P/H222P were backcrossed 8 times to 129S2/SvPasOrlRj strain mice to obtain pure genetic background. Male mice used for the studies were maintained under a 12 h light/12 h dark cycle at constant temperature (23° C.) with free access to food and water. Nicotinamide riboside (NR) complementation: Animals at 17 weeks of age were fed for 9 weeks with either a chow diet (A04: Scientific Animal Food & Engineering) or a chow diet complemented with 0.25% of NR (kindly provided by ChromaDex, Inc. California) corresponding to a dose of 400 mg/kg/day for a mouse weighing 25 g eating 4 g of food per day. Nicotinamide (NAM) treatment: Animals at 17 weeks of age were injected intraperitoneally (IP) every two days (q.a.d.) for 9 weeks with either physiologic serum or physiologic serum added with NAM at 50 mg/ml corresponding to a dose of 500 mg/kg for a mouse weighing 25 g.
Mouse transthoracic echocardiography was performed using an ACUSON 128XP/10 ultrasound with a 11 Mhz linear probe (Mountain View).MHz transducer applied to the chest wall. Mice were maintained under anesthetized with 0.75% isoflurane anaesthesia (0.75% in O2) and placed on a heating pad (25° C.). Left ventricular (LV) parameters were obtained from M-mode recordings in a modified short axis view. The intra ventricular septum (IVS), LV posterior wall (LVPW), LV diameter (LVD) in diastole and systole, the percentage of fractional shortening (FS) and the heart rate (HR) were measured from the mean of at least three separate cardiac cycles. A “blinded” echocardiographer, unaware of the genotype and the treatment, performed the examinations.

[3] = tested on: Lmna^H222P/H222P mice; experiment: Immunoblotting of PARylation, PARP-1, AIF, cleaved-caspase 3 in heart; conditions: NR treated Lmna H222P/H222P mice
Method: as §1
Total proteins were extracted in a glass teflon potter from around 5 mg of mouse heart in […] of Cell Lysis Buffer (Cell Signaling) completed with Deacetylation Inhibitors Cocktail (Santa Cruz). Total protein concentration was assessed with BCA™ Protein Assay (Pierce). […] The signal was captured with a CCD camera (G:Box Syngene) and quantified with ImageJ imaging Software (imagej.net).

[4] = NR diet 400 mg/kg/day vs chow-diet, echocardiography after 4 and 9 weeks

In the case of `NC(=O)c1ccc[n+]([C@@H]2O[C@H](CO)[C@@H](O)[C@H]2O)c1` [NR, nicotinamide riboside], the “NAD+ content in liver and heart” value [1] was “increase of their NAD+ content in both the liver and the heart”, the “left-ventricular end diastolic diameter (LVDd)” value [2, 4] was “significantly decreased” and the “left-ventricular end systolic diameter (LVDs)” value [2, 4] was “significantly decreased”. For the same compound, the “left-ventricular fractional shortening (FS)” value ([2]; NR diet 400 mg/kg/day vs chow-diet, starting as early as four weeks of treatment) was “increased”, the overall heart size ([2]; NR diet vs chow-diet) was “reduced” and the “PARP-1, AIF and cleaved-caspase 3 in heart” value [3] was “activation”. For the same compound, the PARylation in heart [3] was “increase”.
